Where two headings read alike, the source gives them in different places. Each block holds one compound with its values, some of them ahead of it.
Tested on: mouse macrophage (RAW 264.7 cell)
Assay: Inhibition of NO production (nitrite by Greiss reaction) in LPS-treated mouse macrophages
Assay type: cell-based
Conditions: for IC50: Mus musculus
Excerpt: This embodiment uses an analytical method to induce the macrophage of an inflaming mouse, with combination of Greiss reaction, to measure nitrites so as to indirectly measure the output of nitrogen monoxide (NO). As NO is a significant factor in the inflaming reaction, the output of NO can be used to evaluate the degree of inflaming reaction.
In brief, culture mouse macrophage (RAW 264.7 cell) pre-cultured in a 75 cm^2 culture dish in a 96 well plate at a density of 2×10^5 cells/well. The culture solution used is DMEM with 10% FBS, 100 units/mL penicillin and 100 μg/mL streptomycin. The culturing environment is 37° C. and 5% CO2 cell incubator. Let the normally attaching cells pass or not pass the LPS (1 μg/mL) processing with addition or no addition of the compounds obtained from Embodiment II. Then, use Greiss reaction to measure the concentration of nitrites in the upper clarified liquid of the culture solution after culturing the cells.
The experimental results are shown in FIG. 3, wherein, the ability of each compound to inhibit production of NO is shown through the method of IC50. IC50 represents 50% of the inhibiting concentration, i.e., […]. From the data in the figure, it is known that the compounds obtained from Embodiment II all manifest an effect of inhibiting production of NO, i.e., an anti-inflammation effect.

[1] = RAW 264.7 cells, LPS 1 μg/mL, FIG. 3

IC50 (RAW264.7, RAW 264.7 cells, LPS 1 μg/mL, nitrites by Greiss reaction, FIG. 3, printed in brackets as 'about', read-out: IC50 of inhibiting production of NO (approximate range)): 20 to 35 µg/mL | IC50 (RAW264.7, RAW 264.7 cells, LPS 1 μg/mL, nitrites by Greiss reaction, FIG. 3, read-out: IC50 of inhibiting production of NO): > 20 µg/mL
Compound: COc1cc(C)c(OC)c2c1OCO2 [Compound b, 1,4-dimethoxy-2,3-methylenedioxy-5-methylbenzene]

Compound: C=C(C)C#Cc1c(OC)cc(OC)c(OC)c1C [Compound d, Antrocamphin A]
anti-inflammation ability (inhibiting production of NO), in words [1]: excellent anti-inflammation ability

Compound: C=C(C)C#Cc1c(C)c2c(c(OC)c1OC)OCO2 [Compound h, Antrocamphin C]
anti-inflammation ability (inhibiting production of NO), in words [1]: excellent anti-inflammation ability

Compound: C=C(CC[C@@H](C(=O)O)[C@H]1CC[C@@]2(C)C3=CC[C@H]4C(C)(C)[C@@H](O)CC[C@]4(C)C3=CC[C@]12C)C(C)C [Compound m, Dehydroeburicoic acid]
IC50 (RAW264.7, read-out: IC50 of inhibiting production of NO): > 20 µg/mL | IC50 (RAW264.7, read-out: IC50 of inhibiting production of NO (approximate range)): 20 to 35 µg/mL

Source: patent publication US8791156B2, “Polyacetylene compound, an extract containing the same and application thereof” (priority 2011, dated 2014)
